Legend:
[1] = Thermal stability by TG/DTA measurement; type: physicochemical; conditions: for Weight reduction temperatures higher than / thermal stability improved compared with Z-DOL: compared with Z-DOL (Comparative Example 5C); for Weight reduction temperatures higher than / thermal stability improved compared with Z-TETRAOL: compared with Z-TETRAOL (Comparative Example 6C); for Weight reduction temperature 5% / Weight reduction temperature 10% / Weight reduction temperature 20%: TG/DTA, 30-600° C., 10° C./min, air 200 mL/min
[2] = in acetonitrile; cited from earlier work
[3] = Solubility test in fluorine-based solvent Vertrel XF; type: physicochemical; conditions: 25° C., 0.2 parts by mass added to 100 parts, ultrasonic 5 minutes, left 1 day, visually observed
Experimental: (§1) To a predetermined amount of Vertrel XF or n-hexane, the ionic liquid, Z-DOL, or Z-TETRAOL was added. Ultrasonic waves were applied to the resultant mixture for 5 minutes, followed by leaving the mixture to stand for 1 day. The solubility was visually observed.
(§2) Specifically, 0.2 parts by mass of the ionic liquid, Z-DOL, or Z-TETRAOL was added to 100 parts by mass of Vertrel XF (25° C.). After applying ultrasonic waves to the resultant for 5 minutes, the resultant was left to stand for 1 day. Thereafter, the solubility was visually observed and evaluated based on the following evaluation criteria.
[Evaluation Criteria (Fluorine-Based Solvent)]
• 0.2% by mass or greater:
Soluble with addition of 0.2 parts by mass • Less than 0.2% by mass:
Insoluble with addition of 0.2 parts by mass
(§3) Note that, the solubility was visually observed, and it was judged as soluble when it was transparent. Moreover, it was judged as not soluble (insoluble) when it was opaque or insoluble components were observed.

[4] = Solubility test in hydrocarbon-based solvent n-hexane; type: physicochemical; conditions: 25° C., 0.5 parts by mass added to 100 parts, ultrasonic 5 minutes, left 1 day, visually observed
Experimental: as §1
as §2, with “In case of n-hexane, similarly, 0.5” for “Specifically, 0.2”, “n-hexane at 25° C.” for “Vertrel XF (25° C.).”
[Evaluation Criteria (Hydrocarbon-Based Solvent)]
• 0.5% by mass or greater:
Soluble with addition of 0.5 parts by mass • Less than 0.5% by mass:
Insoluble with addition of 0.5 parts by mass
as §3

In the case of `CCCCCCCCCCCCn1cc[n+](CCCCCCCCCCCC)c1CCCCCCCCCCC.O=S(=O)([N-]S(=O)(=O)C(F)(F)C(F)(F)C(F)(F)C(F)(F)F)C(F)(F)C(F)(F)C(F)(F)C(F)(F)F`, the “Weight reduction temperatures higher than / thermal stability improved compared with Z-DOL” value [1] is reported as no less than 170 °C and the “Weight reduction temperatures higher than / thermal stability improved compared with Z-TETRAOL” value [1] is reported as no less than 90 °C.
In the case of `CCCCCCCCCCCCCCCCCCn1cc[n+](CCCCCCCCCCCCCCCCCC)c1CCCCCCCCCCCCCCCCC.O=S(=O)([N-]S(=O)(=O)C(F)(F)C(F)(F)C(F)(F)C(F)(F)F)C(F)(F)C(F)(F)C(F)(F)C(F)(F)F`, the “Weight reduction temperatures higher than / thermal stability improved compared with Z-DOL” value [1] is reported as no less than 140 °C and the “Weight reduction temperatures higher than / thermal stability improved compared with Z-TETRAOL” value [1] is reported as no less than 60 °C.
In the case of `O=S(=O)(C(S(=O)(=O)C(F)(F)F)S(=O)(=O)C(F)(F)F)C(F)(F)F` [(CF3SO2)3CH], the pKa [2] is listed as −3.7.
For `CCCCCCCCCCCCCCCCCC[n+]1ccn(CCCC)c1.O=S1(=O)[N-]S(=O)(=O)C(F)(F)C(F)(F)C1(F)F` [Comp. Ex. 2A, hexafluorocyclopropane-1,3-bis(sulfonyl)imide-1-butyl-3-n-octadecylimidazolium, reference compound], the “Solubility Vertrel XF” value [3] was less than 0.2% by mass and the Solubility n-hexane [4] was less than 0.5% by mass.
In the case of `CCCCCCCCCCCCn1cc[n+](CCCCCCCCCCCC)c1CCCCCCCCCCC.O=S(=O)([N-]S(=O)(=O)C(F)(F)C(F)(F)C(F)(F)C(F)(F)F)C(F)(F)C(F)(F)C(F)(F)C(F)(F)F` [Ex. 2A, bis(nonafluorobutanesulfonyl)imide-1,3-didodecyl-2-undecylimidazolium], the “Weight reduction temperature 5%” value [1] is reported as 335.7 °C, the “Weight reduction temperature 10%” value [1] is reported as 368.9 °C and the “Weight reduction temperature 20%” value [1] is reported as 395.7 °C. The “Solubility Vertrel XF” value [3] was no less than 0.2% by mass, the “Solubility Vertrel XF” value ([3]; listed as Example 2A) was no less than 0.2 % by mass and the Solubility n-hexane [4] was no less than 0.5% by mass. For the same compound, the Solubility n-hexane ([4]; listed as Example 2A) was no less than 0.5 % by mass.
In the case of `CCCCCCCCCCCCCCCCCCn1cc[n+](CCCCCCCCCCCCCCCCCC)c1CCCCCCCCCCCCCCCCC.O=S(=O)([N-]S(=O)(=O)C(F)(F)C(F)(F)C(F)(F)C(F)(F)F)C(F)(F)C(F)(F)C(F)(F)C(F)(F)F` [Ex. 4A, bis(nonafluorobutanesulfonyl)imide-1,3-dioctadecyl-2-heptadecylimidazolium], the “Weight reduction temperature 5%” value [1] is reported as 300.1 °C, the “Weight reduction temperature 10%” value [1] is reported as 337.3 °C and the “Weight reduction temperature 20%” value [1] is reported as 385.8 °C. The “Solubility Vertrel XF” value [3] was less than 0.2% by mass, the “Solubility Vertrel XF” value ([3]; listed as Example 4A) was “less than 0.2 % by mass” and the Solubility n-hexane [4] was no less than 0.5% by mass. The Solubility n-hexane ([4]; listed as Example 4A) was no less than 0.5 % by mass.
With “nonafluorobutanesulfonic acid-1,3-didodecyl-2-undecylimidazolium” the “Weight reduction temperature 5%” value [1] was 287.9 °C, the “Weight reduction temperature 10%” value [1] was 331.8 °C and the “Weight reduction temperature 20%” value [1] was 378.4 °C. For the same compound, the “Weight reduction temperatures higher than / thermal stability improved compared with Z-DOL” value [1] was no less than 130 °C and the “Weight reduction temperatures higher than / thermal stability improved compared with Z-TETRAOL” value [1] was no less than 40 °C.
In the case of “nonafluorobutanesulfonic acid-1,3-dioctadecyl-2-heptadecylimidazolium”, the “Weight reduction temperature 5%” value [1] is reported as 279.7 °C, the “Weight reduction temperature 10%” value [1] is reported as 310.9 °C and the “Weight reduction temperature 20%” value [1] is reported as 361.9 °C. For the same compound, the “Weight reduction temperatures higher than / thermal stability improved compared with Z-DOL” value [1] was no less than 110 °C and the “Weight reduction temperatures higher than / thermal stability improved compared with Z-TETRAOL” value [1] was no less than 40 °C.
